Assay results: US20250345340A1, “METHODS FOR THE PREVENTION AND TREATEMENT OF POST-OPERATIVE ABDOMINAL ADHESIONS” (UNIVERSITY OF ROCHESTER, priority 2024, published 2025)
“Also recorded” adds a separate entry of the source.

Assays:
lung fibroblasts = conditions: cited from earlier work
[1] = tested on: post-operative abdominal adhesions; experiment: Murine abdominal adhesion surgery model (cecum and abdominal wall abrasion, silk sutures, starch); format: in vivo, C57Bl/6J mice
Text: Murine Abdominal Adhesion Surgery: Mature adult (16-20-week-old) C57Bl/6J male and female mice underwent abdominal surgery to induce adhesions consistent with those observed postoperatively in clinical settings. Briefly, following sedation, a vertical midline laparotomy incision, extending from the xyphoid process to just above the bladder (˜4 cm), is made through the abdominal skin and musculature. The cecum is identified and eviscerated, followed by gentle abrasion with sterile 100-grit sandpaper for 30-60 seconds. Hemostasis is ensured and the cecum is then returned to the abdominal cavity. The abdominal wall is then abraded with sterile 100-grit sandpaper, followed by placement of two-four 4-0 silk sutures, which are placed into the abdominal wall. The intestines are then irrigated with warmed sterile saline, and hemostasis is confirmed. A small pinch of sterile autoclaved rice starch is then sprinkled on the cecum and abdominal sidewall. The laparotomy is closed with absorbable, interrupted sutures used to reapproximate the fascia and followed by sutures to close the skin. The skin is closed with skin adhesive.
Scoring of gross adhesion formation: At time of harvest, digital photographic images will be taken of the abdominal cavity of each mouse, with images standardized to a lateral reflection of abdominal wall prior to manipulation of intra-abdominal contents. These images are then curated in a Research Electronic Data Capture (RedCap)-based survey for blinded scoring. Adhesions are scored from 0-5: with ‘0’ indicating no adhesions; 1: a single thin, filmy adhesion; 2: more than one filmy adhesion; 3: one thick adhesion with focal attachment (+thin filmy adhesions); 4: one thick adhesion with broad planar attachment (+thin filmy adhesions); and 5: >1 thick adhesion with broad planar attachment, or >1 thick vascular adhesion with planar attachment (+thin filmy adhesions). Images are scored by at least 5 surgeons trained on the scoring process, with the mean of these scores reported for each mouse.
Histological assessment of adhesions and ileal smooth muscle hypertrophy: Following digital image capture, the area of adhesion between the abdominal wall and bowel (or other organs), including any bowel: bowel adhesions is isolated, fixed in 10% neutral buffered formalin, and processed for paraffin histology. In cases of adhesion absence, the abdominal wall and cecum are harvested and sectioned separately. Five-micron transverse sections are cut through the tissue. To ensure accurate quantification of adhesions, tissue sections are collected through multiple depths through the tissue. […] Adhesion extent (length and cross-sectional area) along both the abdominal wall/cecal surface and between organs are quantified from H&E images by ≥2 blinded observers. […]
At harvest, the study took pictures of the peritoneal cavity, which were scored by 4 blinded, board certified surgeons adhesion scores ranged from 0 (none) to 5 (dense, vascular, adhesions).
The study chose the area of highest visible fibrosis and adhesion density. […] Adhesions were then measured in micrometers. Length of adhesions between the bowel to abdominal wall and bowel to bowel were measured. The total adhesion density (excluding abdominal wall fibrosis) was then measured by cross section. […]

## Nc1nc(NCc2ccccc2)nc(-c2ccccc2CO)n1 [ogerin]
Lung fibroblasts
  TGF-b-induced myofibroblast differentiation: blunts
  reversion to a basal fibroblast phenotype following TGF-β-induced myofibroblast differentiation: can promote reversion
[1]; histology, POD10, vs control
  length of adhesions between the bowel and abdominal wall and bowel to bowel: reduction in length of adhesions
  overall adhesion cross section (total adhesion burden by area): significantly lower; also recorded: reduces total adhesion burden
[1]; ogerin injected POD 0-5, harvest POD10, vs vehicle
  clinical adhesion score (0-5, blinded surgeons): reduces clinical adhesion score; also recorded: significantly lower
[1]; ogerin injected POD 0-5, harvest POD10, vs vehicle DMSO:Saline 60:40
  adhesion formation (gross): blunts adhesion formation; also recorded: substantial decrease in adhesion formation
[1]; ogerin injected POD 0-5, harvest POD10, all vehicle mice formed robust adhesions
  mice demonstrating a complete lack of adhesion formation: 3 out of 4
